In ChEMBL document CHEMBL5331124, “Degradation of Hexokinase 2 Blocks Glycolysis and Induces GSDME-Dependent Pyroptosis to Amplify Immunogenic Cell Death for Breast Cancer Therapy” (J Med Chem, 2023):
Active and inactive are the calls of the source.

Tests used:
[1] = Toxicity in BALB/c mouse implanted with mouse 4T1 cells assessed as pathological changes in lung at 50 mg/kg, ip measured after 25 days in presence of cisplatin by Hematoxylin -eosin staining based analysis; format: organism-based; details: in vivo, 600 h, time 25 day
[2] = Toxicity in BALB/c mouse implanted with mouse 4T1 cells assessed as effect on hematocrit level at 50 mg/kg, ip measured after 25 days by routine blood test; format: organism-based; details: in vivo, 600 h, time 25 day
[3] = biological target: T1, Hexokinase-1 (Homo sapiens) (UniProt P19367); assay: Induction of HK1 degradation in human MDA-MB-231 cells at 20 uM measured for 36 hrs by Western blot analysis; format: cell-based
T1 sequence (whole entry): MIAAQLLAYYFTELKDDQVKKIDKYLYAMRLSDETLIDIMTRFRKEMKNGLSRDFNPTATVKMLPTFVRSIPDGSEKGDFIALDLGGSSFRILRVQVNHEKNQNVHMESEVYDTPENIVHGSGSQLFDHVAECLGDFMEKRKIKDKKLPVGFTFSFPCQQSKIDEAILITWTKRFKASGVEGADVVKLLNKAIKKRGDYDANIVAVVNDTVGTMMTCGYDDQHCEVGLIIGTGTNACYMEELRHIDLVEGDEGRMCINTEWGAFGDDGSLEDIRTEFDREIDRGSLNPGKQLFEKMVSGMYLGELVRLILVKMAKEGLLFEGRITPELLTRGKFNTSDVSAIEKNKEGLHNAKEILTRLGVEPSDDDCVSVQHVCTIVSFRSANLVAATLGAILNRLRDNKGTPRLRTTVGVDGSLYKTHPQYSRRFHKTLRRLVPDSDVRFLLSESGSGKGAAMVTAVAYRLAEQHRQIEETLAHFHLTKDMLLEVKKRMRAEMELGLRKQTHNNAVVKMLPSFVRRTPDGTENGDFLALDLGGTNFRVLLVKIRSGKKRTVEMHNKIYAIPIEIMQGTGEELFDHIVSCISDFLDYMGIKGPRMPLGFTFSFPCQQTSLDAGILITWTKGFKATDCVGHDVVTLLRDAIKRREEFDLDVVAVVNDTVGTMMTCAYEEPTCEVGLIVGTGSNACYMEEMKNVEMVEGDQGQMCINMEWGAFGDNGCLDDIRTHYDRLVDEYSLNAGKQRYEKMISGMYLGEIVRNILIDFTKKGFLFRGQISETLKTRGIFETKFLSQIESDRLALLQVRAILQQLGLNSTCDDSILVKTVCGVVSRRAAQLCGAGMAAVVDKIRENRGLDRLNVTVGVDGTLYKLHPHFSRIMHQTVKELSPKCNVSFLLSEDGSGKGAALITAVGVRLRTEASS

[4] = test system: 4T1; assay: Induction of pyroptosis in mouse 4T1 cells assessed as increase in full length GSDME level at 20 uM incubated for 36 hrs; format: functional, cell-based
[5] = test system: 4T1; assay: Induction of pyroptosis in mouse 4T1 cells assessed as […] in cleaved caspase-3 level at 20 uM incubated for 36 hrs; format: functional, cell-based
[6] = Toxicity in BALB/c mouse implanted with mouse 4T1 cells assessed as effect on platelet count at 50 mg/kg, ip measured after 25 days by routine blood test; format: organism-based; details: in vivo, 600 h, time 25 day
[7] = test system: 4T1; assay: Antitumor immunity against mouse 4T1 cells implanted in BALB/c mouse model assessed as upregulation of IFN-gamma expression in mouse tumor by ELISA analysis; format: functional, cell-based
[8] = test system: 4T1; assay: Antitumor immunity against mouse 4T1 cells implanted in BALB/c mouse model assessed as increase in HMGB1 release in tumor; format: functional, cell-based
[9] = Toxicity in BALB/c mouse implanted with mouse 4T1 cells assessed as pathological changes in heart at 50 mg/kg, ip measured after 25 days in presence of cisplatin by Hematoxylin -eosin staining based analysis; format: organism-based; details: in vivo, 600 h, time 25 day
[10] = Toxicity in BALB/c mouse implanted with mouse 4T1 cells assessed as colon damage at 50 mg/kg, ip measured after 25 days in presence of cisplatin by H and E staining based analysis; format: organism-based; details: in vivo, 600 h, time 25 day
[11] = test system: 4T1; assay: Antitumor activity against mouse 4T1 cells implanted in BALB/c mouse assessed as reduction in tumor growth at 50 mg/kg, ip measured after 23 days in presence of cisplatin; format: functional, organism-based; details: time 23.0 day
[12] = test system: 4T1; assay: Inhibition of glycolysis in mouse 4T1 cells assessed as reduction in extracellular acidification rate at 20 uM incubated for 1 to 4 hrs by seahorse analyzer method; format: functional, cell-based; details: time 1-4 hrs
[13] = test system: 4T1; assay: Antitumor activity against mouse 4T1 cells xenografted in BALB/c mouse assessed as reduction in tumor growth at 50 mg/kg, ip measured after 23 days; format: functional, organism-based; details: time 23.0 day
[14] = test system: HGC-27; assay: Antiproliferative activity against human HGC-27 cells assessed as cell growth inhibition measured for 72 hrs by MTT assay; format: functional, cell-based; details: HGC-27, 72 h
[15] = Toxicity in BALB/c mouse implanted with mouse 4T1 cells assessed as effect on mean corpuscular hemoglobin concentration at 50 mg/kg, ip measured after 25 days in presence of cisplatin by routine blood test; format: organism-based; details: in vivo, 600 h, time 25 day
[16] = Toxicity in BALB/c mouse implanted with mouse 4T1 cells assessed as effect on red blood cells at 50 mg/kg, ip measured after 25 days by routine blood test; format: organism-based; details: in vivo, 600 h, time 25 day
[17] = test system: 4T1; assay: Antitumor activity against mouse 4T1 cells implanted in BALB/c mouse model assessed as reduction in HK2 expression level at 50 mg/kg, ip measured after 25 days by Western blot analysis; format: functional, organism-based; details: time 25.0 day

O=C1CCC(N2C(=O)c3cccc(NCCCCNC(=O)c4nn(Cc5ccc(Cl)cc5Cl)c5ccccc45)c3C2=O)C(=O)N1 (configuration not stated)
active: Activity [4] | Activity [5] | Activity [7] | Activity [8] | Activity [11] | inhibition [12] | Activity [13] | Activity [17]
6.11 µM: IC50 [14]
Non-Toxic: Activity [1] | Activity [2] | Activity [6] | Activity [9] | Activity [10] | Activity [15] | Activity [16]
inactive: Activity [3]
